Measured values as given in US12559494B2, “Functionalized lactams as modulators of the 5-hydroxytryptamine receptor 7 and their method of use” (Temple University - Of The Commonwealth System of Higher …, priority 2018, dated 2026).
Structures can show the parent of a compound that is named as a salt. Where two headings read alike, the source gives them in different places.

Columns and labels:
[1] = target: T1, 5HT7 receptors (Homo sapiens, UniProt P34969); experiment: Functional data (Kb), HitHunter cAMP enzyme fragment complementation assay with 5-HT as agonist; format: cell-based; parameters: expressed in transfected cells; G418 selection)
T1 sequence (P34969 whole entry, the tested form may be a part): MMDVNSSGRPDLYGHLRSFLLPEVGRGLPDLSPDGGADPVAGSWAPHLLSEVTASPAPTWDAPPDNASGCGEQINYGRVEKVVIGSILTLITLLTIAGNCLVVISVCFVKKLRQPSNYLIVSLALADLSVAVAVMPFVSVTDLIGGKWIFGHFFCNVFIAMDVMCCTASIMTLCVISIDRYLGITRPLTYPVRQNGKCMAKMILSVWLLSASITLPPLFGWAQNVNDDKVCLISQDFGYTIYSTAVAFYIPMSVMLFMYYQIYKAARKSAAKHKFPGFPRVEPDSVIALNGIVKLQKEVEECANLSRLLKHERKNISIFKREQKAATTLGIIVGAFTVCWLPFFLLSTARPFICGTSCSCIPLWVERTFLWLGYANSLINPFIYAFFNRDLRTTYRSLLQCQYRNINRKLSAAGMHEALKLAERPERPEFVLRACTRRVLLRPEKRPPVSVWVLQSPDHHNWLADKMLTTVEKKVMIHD
Procedure: Functional efficacy of the compounds of the disclosure on 5-HT7 serotonin receptors were measured in a cell based cAMP enzyme fragment complementation assay using the HitHunter cAMP assay (DiscoveRx). Cells stably expressing human 5HT7 receptors were plated in 96-well plates at 4000 cells/well, 16-20 hours prior to assay in growth media (Ultraculture medium, 2 mM GlutaMax and G418 1 mg/mL. Serial dilutions of the agonist, 5-hydroxytryptamine (5-HT), were prepared in a final concentration range of 10 μM to 10 nM. Compounds of the disclosure were prepared in 3-fold serial dilutions to obtain a final concentration range of 10 μM to 0.1 nM. Compounds of the disclosure are tested for agonist activity in the absence of 5-HT and antagonist activity in the presence of 5-HT. For the cAMP assay, the protocol was followed according to the instructions provided by the supplier. Briefly, cells were incubated with a compound of the disclosure for 30 minutes at 37° C. prior to addition of EC70 concentration of 5-HT. After an additional 30 minutes, cAMP antibody/cell lysis solution was added (20 μL/well) and incubated for 60 minutes at room temperature. cAMP XS+EA reagent is added (20 μL/well) and incubated for 2 hours at room temperature. Luminescence was read on the Envision Multilabel plate reader.

[2] = target: T1, 5HT7 receptors; experiment: Radiolabeled binding (IC50 and Ki), [3H]LSD competition on membranes of cells expressing recombinant 5HT7 receptors; parameters: expressed in transfected cells
Procedure: Radiolabel Binding Studies for Serotonin 5HT7 Receptors, Method 1:
(§1) A solution of the compound of the disclosure to be tested is prepared as a 1-mg/ml stock in Assay Buffer or DMSO according to its solubility. A similar stock of the reference compound chlorpromazine is also prepared as a positive control. Eleven dilutions (5×assay concentration) of the compound of the disclosure and chlorpromazine are prepared in the Assay Buffer by serial dilution to yield final corresponding assay concentrations ranging from 10 pM to 10 μM.
A stock concentration of 5 nM [^3H]LSD (lysergic acid diethyl amide) is prepared in 50 mM Tris-HCl, 10 mM MgCl2, 1 mM EDTA, pH 7.4 (Assay Buffer). Aliquots (50 μl) of radioligand are dispensed into the wells of a 96-well plate containing 100 μl of Assay Buffer. Duplicate 50-μl aliquots of the compound of the disclosure test and chlorpromazine positive control reference compound serial dilutions are added.
Membrane fractions of cells expressing recombinant 5HT7 receptors (50 μL) are dispensed into each well. The membranes are prepared from stably transfected cell lines expressing 5HT7 receptors cultured on 10-cm plates by harvesting PBS-rinsed monolayers, resuspending and lysing in chilled, hypotonic 50 mM Tris-HCl, pH 7.4, centrifuging at 20,000×g, decanting the supernatant and storing at −80° C.; the membrane preparations are resuspended in 3 ml of chilled Assay Buffer and homogenized by several passages through a 26 gauge needle before using in the assay.
The 250-μl reactions are incubated at room temperature for 1.5 hours, then harvested by rapid filtration onto 0.3% polyethyleneimine-treated, 96-well filter mats using a 96-well Filtermate harvester. Four rapid 500-μl washes are performed with chilled Assay Buffer to reduce non-specific binding. The filter mats are dried, then scintillant is added to the filters and the radioactivity retained on the filters is counted in a Microbeta scintillation counter.
Raw data (dpm) representing total radioligand binding (i.e., specific+non-specific binding) are plotted as a function of the logarithm of the molar concentration of the competitor (i.e., test or reference compound). Non-linear regression of the normalized (i.e., percent radioligand binding compared to that observed in the absence of test or reference compound) raw data is performed in Prism 4.0 (GraphPad Software) using the built-in three parameter logistic model describing ligand competition binding to radioligand-labeled sites: y=bottom+[(top-bottom)/(1+10×−logIC50)] where bottom equals the residual radioligand binding measured in the presence of 10 μM reference compound (i.e., non-specific binding) and top equals the total radioligand binding observed in the absence of competitor. The log IC50 (i.e., the log of the ligand concentration that reduces radioligand binding by 50%) is thus estimated from the data and used to obtain the Ki by applying the Cheng-Prusoff approximation: Ki=IC50/(1+[ligand]/KD) • where [ligand] equals the assay radioligand concentration and KD equals the affinity constant of the radioligand for the target receptor.
^1Radiolabeled Binding (IC50 and K1)
as §1, with “tested was” for “tested is”, “chlorpromazine was” for “chlorpromazine is”, “dilutions (5× assay” for “dilutions (5×assay”, “chlorpromazine were” for “chlorpromazine are”, “[…]” for “10 pM”
A stock concentration of 5 nM [^3H]LSD (lysergic acid diethyl amide) was prepared in 50 mM Tris-HCl, 10 mM MgCl2, 1 mM EDTA, pH 7.4 (Assay Buffer). Aliquots (50 μl) of radioligand were dispensed into the wells of a 96-well plate containing 100 μl of Assay Buffer. […]

[3] = cAMP assay, cells stably expressing human 5HT7 receptors, antagonist activity in the presence of EC70 5-HT, read-out: Kb (nM)^2
[4] = [3H]LSD radioligand, membranes of cells expressing recombinant 5HT7 receptors, read-out: IC50 (nM)^1
[5] = Table 35, scaffold drawing 615, antagonist mode vs 5-HT, read-out: Kb
[6] = Table 35, scaffold drawing 615, read-out: IC50
[7] = Table 37, scaffold drawing 617, antagonist mode vs 5-HT, read-out: Kb

SMILES	Kb [1, 3] [nM]	IC50 [2, 4] [nM]	Kb [1, 5] [nM]	further results
CCC1(CC)C[C@@H](CCN2CCN(c3ccc(C)cc3)CC2)NC1=O [(S)-3,3-diethyl-5-(2-(4-(p-tolyl)piperazin-1-yl)ethyl)pyrrolidin-2-one]	–	–	–	Kb ([1]; Table 36, scaffold drawing 616, antagonist mode vs 5-HT, read-out: Kb): 58.1 nM; Ki ([2]; Table 36, scaffold drawing 616): 79 nM
CCC1(CC)CC(CCN2CCN(c3ccc(C)cc3)CC2)NC1=O (centres unmarked) [3,3-diethyl-5-(2-(4-(p-tolyl)piperazin-1-yl)ethyl)pyrrolidin-2-one]	24.1	28	–	–
CCC1(CC)C[C@H](CCN2CCN(c3cccc(Cl)c3)CC2)NC1=O [(R)-5-(2-(4-(3-chlorophenyl)piperazin-1-yl)ethyl)-3,3-diethylpyrrolidin-2-one]	–	–	1.38	IC50 [2, 6]: 9.9 nM
CCC1(CC)C[C@H](CCN2CCN(c3ccc(C)cc3)CC2)NC1=O [(R)-3,3-diethyl-5-(2-(4-(p-tolyl)piperazin-1-yl)ethyl)pyrrolidin-2-one]	–	–	8.43	Ki ([2]; Table 35, scaffold drawing 615): 11 nM
CCC1(CC)CC(CCN2CCN(c3ccccc3C(C)C)CC2)NC1=O (centres unmarked) [3,3-diethyl-5-(2-(4-(2-isopropylphenyl)piperazin-1-yl)ethyl)pyrrolidin-2-one]	163	23	–	–
CCC1(CC)C[C@H](CCN2CCN(c3ccc(F)c(Cl)c3)CC2)NC1=O [(R)-5-(2-(4-(3-chloro-4-fluorophenyl)piperazin-1-yl)ethyl)-3,3-diethylpyrrolidin-2-one]	–	–	1.92	IC50 [2, 6]: 8.7 nM
CCC1(CC)CC(CCN2CCN(c3ccccc3N3CCOCC3)CC2)NC1=O (centres unmarked) [3,3-diethyl-5-(2-(4-(2-morpholinophenyl)piperazin-1-yl)ethyl)pyrrolidin-2-one]	32.3	24	–	–
CCC1(CC)CC(CCN2CCN(c3ccc(Cl)cc3)CC2)NC1=O (centres unmarked) [5-(2-(4-(4-chlorophenyl)piperazin-1-yl)ethyl)-3,3-diethylpyrrolidin-2-one]	54.6	13	–	–
CCC1(CC)CC(CCN2CCN(c3ccc(O)cc3)CC2)NC1=O (centres unmarked) [3,3-diethyl-5-(2-(4-(4-hydroxyphenyl)piperazin-1-yl)ethyl)pyrrolidin-2-one]	50	34	–	–
CC(=O)N1CCC2(CC1)C[C@H](CCN1CCN(c3cccc(Cl)c3)CC1)NC2=O [drawing 617 n=2 R3=3-Cl-Phenyl R7=Acetyl, (R)-8-acetyl-3-(2-(4-(3-chlorophenyl)piperazin-1-yl)ethyl)-2,8-diazaspiro[4.5]decan-1-one]	–	–	–	Kb [1, 7]: 5.04 nM; Ki ([2]; Table 37, scaffold drawing 617): 63 nM
CCC1(CC)C[C@H](CCN2CCN(c3ccc(Cl)c(Cl)c3)CC2)NC1=O [(R)-5-(2-(4-(3,4-dichlorophenyl)piperazin-1-yl)ethyl)-3,3-diethylpyrrolidin-2-one]	–	–	6.19	IC50 [2, 6]: 82.8 nM
CS(=O)(=O)N1CCC2(CC1)C[C@H](CCN1CCN(c3ccc(F)cc3)CC1)NC2=O [drawing 617 n=2 R3=4-F-Phenyl R7=MeSO2, (R)-3-(2-(4-(4-fluorophenyl)piperazin-1-yl)ethyl)-8-(methylsulfonyl)-2,8-diazaspiro[4.5]decan-1-one]	–	–	–	Kb [1, 7]: 30.7 nM; Ki ([2]; Table 37, scaffold drawing 617): 89 nM
CCC1(CC)C[C@H](CN2CCN(c3ccc(C)cc3N3CCOCC3)CC2)NC1=O [(R)-3,3-diethyl-5-((4-(4-methyl-2-morpholinophenyl)piperazin-1-yl)methyl)pyrrolidin-2-one formate]	–	–	43.8	Ki ([2]; Table 35, scaffold drawing 615): 132 nM
CCC1(CC)CC(CCN2CCN(c3ccc(C)cc3N3CCOCC3)CC2)NC1=O (centres unmarked) [3,3-diethyl-5-(2-(4-(4-methyl-2-morpholinophenyl)piperazin-1-yl)ethyl)pyrrolidin-2-one]	59.3	74	–	–
CS(=O)(=O)N1CCC2(CC1)C[C@H](CCN1CCN(c3cccc(Cl)c3)CC1)NC2=O [drawing 617 n=2 R3=3-Cl-Phenyl R7=MeSO2, (R)-3-(2-(4-(3-chlorophenyl)piperazin-1-yl)ethyl)-8-(methylsulfonyl)-2,8-diazaspiro[4.5]decan-1-one]	–	–	–	Kb [1, 7]: 13.5 nM; Ki ([2]; Table 37, scaffold drawing 617): 107 nM
CCC1(CC)CC(CCN2CCN(c3ccc(F)cc3)CC2)NC1=O (centres unmarked) [3,3-diethyl-5-(2-(4-(4-fluorophenyl)piperazin-1-yl)ethyl)pyrrolidin-2-one]	8.98	8.5	–	–
